Measurements: ChEMBL document CHEMBL3745657, “Core chemotype diversification in the HIV-1 entry inhibitor class using field-based bioisosteric replacement” (Bioorg Med Chem Lett, 2016)

Columns and labels:
Format in all cases: functional, organism-based
[1] = test system: Human immunodeficiency virus 1; experiment: Antiviral activity against recombinant HIV-1 NL4-3 expressing HIV-1 JR-CSF envelope infected in U87.CD4.CCR5 cells assessed as inhibition of Env mediated cell entry by HIV-1 single round infection assay; conditions: Human immunodeficiency virus 1, NL4-3, U87/CD4/CCR5
[2] = test system: Human immunodeficiency virus 1; experiment: Antiviral activity against recombinant HIV-1 NL4-3 expressing HIV-1 HxBc2 envelope infected in U87.CD4.CXCR4 cells by HIV-1 single round infection assay; conditions: Human immunodeficiency virus 1, NL4-3, U87.CD4.CXCR4
[3] = test system: Human immunodeficiency virus 1; experiment: Antiviral activity against recombinant HIV-1 NL4-3 expressing HIV-1 B41 envelope infected in U87.CD4.CCR5 cells assessed as inhibition of Env mediated cell entry by HIV-1 single round infection assay; conditions: Human immunodeficiency virus 1, NL4-3, U87/CD4/CCR5
[4] = test system: Human immunodeficiency virus 1; experiment: Antiviral activity against recombinant HIV-1 NL4-3 expressing AMLV envelope infected in U87.CD4.CCR5 cells assessed as inhibition of Env mediated cell entry by HIV-1 single round infection assay

| IC50 ([1]; read-out: IC50) [nM] | IC50 ([1]; read-out: pIC50 (converted)) [nM] | IC50 [2] [nM] | IC50 [3] [nM] | IC50 [4] | SMILES |
| --- | --- | --- | --- | --- | --- |
| 100000 | – | – | – | – | COc1cnc(Cl)c2[nH]cc(C(=O)C(=O)N3CC4CN(C(=O)c5ccccc5)CC4C3)c12 (centres undefined) |
| 1 | 0.794 | – | – | – | COc1cnc(-n2cnc(C)n2)c2[nH]cc(C(=O)C(=O)N3CC4CN(C(=O)c5ccccc5)CC4C3)c12 (centres undefined) |
| 2 | – | – | – | – | COc1cnc(-n2cnc(C)n2)c2[nH]cc(C(=O)C(=O)N3CC4CN(C(=O)C5=CCCCC5)CC4C3)c12 (centres undefined) |
| 13000 | 12900 | 36000 | 3900 | Not Active | COc1cnc(-n2cnc(C)n2)c2[nH]cc(C(=O)C(=O)N3CCC4(CCN(C(=O)c5ccccc5)CC4)C3)c12 |
| 96 | – | 69 | 85 | Not Active | COc1cnc(-n2cnc(C)n2)c2[nH]cc(C(=O)C(=O)NC3C4CN(C(=O)c5ccccc5)CC43)c12 (centres undefined) |
| 3 | – | 9 | 7 | Not Active | COc1cnc(-n2cnc(C)n2)c2[nH]cc(C(=O)C(=O)N3CC(CCC(=O)c4ccccc4)C3)c12 |
| 8 | – | 80 | 6 | Not Active | COc1cnc(-n2cnc(C)n2)c2[nH]cc(C(=O)C(=O)N3CC4C=NN(c5ccccc5)C4C3)c12 (centres undefined) |
| 224 | – | 380 | 350 | Not Active | COc1cnc(-n2cnc(C)n2)c2[nH]cc(C(=O)C(=O)N3CC=C(CNC(=O)c4ccccc4)CC3)c12 |
| 2500 | – | 3800 | 3800 | Not Active | COc1cnc(-n2cnc(C)n2)c2[nH]cc(C(=O)NCC3CN(C(=O)c4ccccc4)C3)c12 |
